Data as given in patent US10111847B2, “Compounds and methods for modulating vascular injury” (The Regents of the University of California, priority 2012, dated 2018).

Assays:
Type in all cases: cell-based, human
[1] = tested on: VSMC; experiment: Transwell migration of VSMC to PDGF-AB; settings: 100 nM; chemotaxis to PDGF-AB 50 ng/mL, 8 hours; P<0.01
Text: Primary cultures of human greater saphenous vein smooth muscle cells (hVSMC) are isolated from saphenous vein discarded at the time of bypass operation in an Institutional Review Board-approved protocol as described by Conte et al. “Regulation of vein graft hyperplasia by survivin, an inhibitor of apoptosis protein.” Arterioscler Thromb Vasc Biol. 2005; 25:2081-2087. VSMCs are maintained in Dulbecco's modified Eagle's medium (DMEM Low Glucose) (HyClone Laboratories Inc, Logan, Utah) containing 10% fetal bovine serum (FBS) (Invitrogen Life Technologies, Grand Island, N.Y.) and used between passages 2-5. Endothelial cells were maintained in Medium 199 supplemented with EBSS (Hyclone Laboratories, Logan, Utah, USA) and Endothelial Cell Growth Supplement. Cells between passages 3-8 were used for the experiments.
RvD. […]
(§1) FIG. 1: RvD1 and RvD2 attenuate cell adhesion, proliferation, and migration responses of human VSMC in-vitro. […] Results are shown as relative percent inhibition, expressed as a percentage of the maximal adhesion for the agonist (n=6, results are mean±SEM, **P<0.01, *P<0.05, unpaired t-test). […] Results are expressed as percentage change in migration from unstimulated control (no PDGF). […]

[2] = tested on: VSMC; experiment: VSMC proliferation assay (Alamar Blue) in 10% serum; settings: 100 nM; standard growth medium (10% serum); P<0.01
Text: Primary cultures of human greater saphenous vein smooth muscle cells (hVSMC) are isolated from saphenous vein discarded at the time of bypass operation in an Institutional Review Board-approved protocol as described by Conte et al. “Regulation of vein graft hyperplasia by survivin, an inhibitor of apoptosis protein.” Arterioscler Thromb Vasc Biol. 2005; 25:2081-2087. VSMCs are maintained in Dulbecco's modified Eagle's medium (DMEM Low Glucose) (HyClone Laboratories Inc, Logan, Utah) containing 10% fetal bovine serum (FBS) (Invitrogen Life Technologies, Grand Island, N.Y.) and used between passages 2-5. […]
Cell proliferation assay is performed as described by Conte et al. Arterioscler Thromb Vasc Biol. 2005; 25:2081-2087. […] Fluorescence measurements (excitation 506 nm, emission 590 nm) are made on media aliquots; a standard curve is generated by correlating emission intensity with viable cell counts using Trypan Blue exclusion.
as §1

[3] = tested on: ICAM-1; experiment: TNF-α-stimulated ICAM-1 gene expression in VSMC by qRT-PCR; settings: 100 nM; TNF-α 10 ng/ml 18 hours; P<0.01
Procedure: (§2) Cells are plated onto 6-well plates at 100% confluency in DMEM plus 10% FBS and allowed to attached overnight. Cells are then made quiescent by placing in serum-free media for 48-72 hours prior to start of experiments. Cells are treated with or without RvD1 or RvD2 at the indicated concentrations for one hour followed by co-incubation with cytokine (TNF-α 10 ng/ml) for up to 18 hours. In a separate set of experiments to examine the role of G-protein receptors, VSMCs are exposed to TNF-α and RvD2 (10 nM) as described above, in the presence or absence of pertussis toxin (PTX 100 ng/ml). Total RNA from rabbit sample or cells is isolated with PureLink RNA Mini kit (Ambion Life Technologies, Carlsbad, Calif.) with RNase-free DNase treatment according to manufacturer's protocol. One microgram of total RNA (from either VSMC or rabbit tissue) is used to generate cDNA using High Capacity cDNA Reverse Transcription Kit (Applied Biosystems, Foster City, Calif.) for subsequent RT-PCR reactions. Sybrgreen Amplified DNA is detected by incorporation SYBR Green (Qiagen, Germantown, Md.). Dissociation curve analyses are performed to confirm the specificity of the SYBR Green signal. Data is normalized to at least two reference genes. […]
(§3) FIG. 2: RvD1 and RvD2 reduce pro-inflammatory gene expression in VSMC. […] Expression of the cell adhesion molecules VCAM-1 (A) and ICAM-1 (B) was measured by qRT-PCR. […]

[4] = tested on: VCAM-1; experiment: TNF-α-stimulated VCAM-1 gene expression in VSMC by qRT-PCR; settings: 100 nM; TNF-α 10 ng/ml 18 hours; P<0.01
Procedure: as §2, §3

Compound	Maximum % reduction in the cell migration assay [1]	inhibition of VSMC proliferation, maximum effect [2]	ICAM-1 expression, maximum % reduction [3]	VCAM-1 expression, maximum % reduction [4]
CC/C=C\C[C@H](O)/C=C/C=C\C=C\C=C\[C@@H](O)[C@@H](O)C/C=C\CCC(=O)O [RvD1, Resolvin D1]	63%	59%	63%	69%
CC/C=C\C[C@H](O)[C@H](O)/C=C/C=C/C=C\C=C\[C@@H](O)C/C=C\CCC(=O)O [RvD2, resolvin D2]	69%	63%	70%	76%
